What was measured:
[1] = test system: mixed inoculum of Candida albicans ATCC 10231 and Aspergillus niger ATCC 16404; experiment: Challenge test, fungi, in unpreserved shampoo pH 5.5 (Table 2); details: shampoo of Table 2, pH 5.5, Example 1 at 1% or its components at 0.06% sorbic acid, 0.2% benzyl alcohol, 0.37% 1,2-propanediol, 0.37% 1,4-butanediol
[2] = test system: mixed inoculum of Staphylococcus aureus ATCC 6538, Pseudomonas aeruginosa ATCC 9027 and Escherichia coli ATCC 8739; experiment: Challenge test, bacteria, in unpreserved shampoo (Shampoo ULD); details: room temperature, Example 1 at 1% or its components at 0.06% sorbic acid, 0.2% benzyl alcohol, 0.37% 1,2-propanediol, 0.37% 1,4-butanediol
Protocol: A mixed inoculum containing approximately equal amounts of Staphylococcus aureus ATCC 6538, Pseudomonas aeruginosa ATCC 9027 and Escherichia coli ATCC 8739 was prepared according to the following procedure:
One colony of each bacteria strain was transferred from a stock culture to a tryptic soy agar plate which was incubated for 18-24 h at 37±2° C. Subsequently, some colonies of each of the thus-obtained cultures were transferred to a tryptic soy broth tube which was again incubated for 18-24 h at 37±2° C. to obtain a bacteria subculture, 200 μL of which were added to 2 mL of NaCl-peptone solution in a sterile plastic tube to obtain an inoculum containing approximately 10^9 cfu/mL of the respective bacterium. Finally, the mixed inoculum was prepared by mixing equal volumes of each inoculum.
For comparison purposes, additional 20 g samples were tested using equivalent amounts of each of the components of the preservative composition either alone or in two- or three-component combinations. Each sample was then inoculated with 200 μL of the mixed inoculum obtained in step A) and shaken vigorously to obtain a homogeneous contamination. The samples were then stored at room temperature and the bacteria count was determined in intervals of 7 days by taking 200 μL samples, mixing each of them with 1.8 mL of inactivation medium, and homogeneously plating 100 μL of the resulting mixtures on the surface of agar plates which were incubated for 2-3 days at 37±2° C. After the incubation period the colonies formed on the agar plates were counted and the results translated into cfu/mL. If necessary, serial dilutions in NaCl-peptone were prepared to cope with high bacteria counts.

**Q.** For `C/C=C/C=C/C(=O)O` [Sorbic Acid], which “Mixed Fungi Germ Count, 7 days” value ([1]; 7 days) is on record?
**A.** >10^5 cfu/g

**Q.** And the “Mixed Fungi Germ Count, 14 days” value ([1]; 14 days)?
**A.** >10^4 cfu/g

**Q.** And the “Mixed Fungi Germ Count, 21 days” value ([1]; 21 days)?
**A.** >10^5 cfu/g

**Q.** And the “Mixed Fungi Germ Count, 28 days” value ([1]; 28 days)?
**A.** >10^3 cfu/g

**Q.** And the “Mixed Bacteria Germ Count, 7 days” value ([2]; 7 days)?
**A.** >10^4 cfu/g

**Q.** And the “Mixed Bacteria Germ Count, 14 days” value ([2]; 14 days)?
**A.** >10^3 cfu/g

**Q.** And the “Mixed Bacteria Germ Count, 21 days” value ([2]; 21 days)?
**A.** 6.7 × 10^2 cfu/g

**Q.** And the “Mixed Bacteria Germ Count, 28 days” value ([2]; 28 days)?
**A.** 2.0 × 10^1 cfu/g
